Laboratory results reported in patent US6169181A, “Compounds useful to treat retroviral infections” (Pharmacia & Upjohn Company, priority 1998, dated 2001).
Where “and” joins values, the source holds several entries; their conditions need not be identical. Identical values can stand only once. Like-named read-outs stand apart in the source and are kept apart here.

Assays:
[1] = biological target: T1, HIV-1 protease (Human immunodeficiency virus type 1 group M subtype B, UniProt P04585); assay: biochemical
Method in brief: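 Biotinylated, FITC-labelled peptide substrate cleaved in 0.1 M sodium acetate pH 5.5, 1.0 M NaCl, 0.05% NP-40, room temperature. Filtered labelled product read by fluorescence; nonlinear least-squares fit.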

[2] = tested on: human T-cell lines, e.g., MT4 and H9, infected with HIV-1IIIB; assay: Retroviral replication in infected human T-cell lines; assay type: cell-based; settings: MT4 and H9 cells infected with HIV-1IIIB
Method: Several compounds of the present invention, such as N-[3-(1-[5,6-Dihydro-4-hydroxy-2-oxo-6-(2-phenethyl)-6-propyl-2H-pyran-3-yl]-2,2-dimethylpropyl)phenyl]-1-methyl-1H-imidazole-4-sulfonamide were tested in known human cell lines, such as human T-cell lines, e.g., MT4 and H9, which were infected with HIV-1IIIB, and certain of these compounds were further tested in peripheral blood mononuclear cells (PBMC), which were infected with HIV-1JRCSF (a clinical isolate).

[3] = biological target: T1, HIV-1 protease; assay: biochemical; remark: listed apart in the source
Method in brief: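 Percent inhibition came from fluorescence of FITC-tagged cleavage product, separated by filtration from uncleaved substrate captured on streptavidin-coated beads. The enzyme (10 μl of 0.1 μM) and compound acted on a biotin/FITC dual-labelled peptide for one hour at room temperature in the dark. The reaction ran in 0.1 M sodium acetate, pH 5.5, with 1.0 M NaCl and 0.05% NP-40.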

[4] = biological target: T2, single chain tethered (tandem) HIV protease (HIV-1 M:B_HXB2R, UniProt P04585); assay: Tandem HIV protease assay; assay type: biochemical; settings: read-out: FITC KI; Table II; enzyme HIV1TANDEM
T2 construct: purified enzyme, FITC/biotin substrate assay
Method in brief: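 Covalently tethered single-chain HIV protease dimer allows very low enzyme levels for Ki measurement. N-biotinylated, C-fluorescein-labelled peptide substrate incubated with enzyme and inhibitor at pH 5.5 in the dark for 96 h; streptavidin beads stop reaction, cleaved product filtered off and residual fluorescence fitted to obtain Ki.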

[5] = biological target: T3, HIV-2 (Human immunodeficiency virus type 2 subtype A, UniProt P04584); assay: FITC Ki, enzyme HIV-2; assay type: biochemical; settings: Table II
T3 construct: tested in the HIV protease screening assay and/or tandem HIV protease assay

[6] = Table II, enzyme HIV-1, DOSE 0.123 (unit not given)
[7] = Table II, enzyme HIV-1, DOSE 0.370 (unit not given)
[8] = Table II, enzyme HIV-1, DOSE 1.100 (unit not given)
[9] = Table II, enzyme HIV-1, DOSE 3.300 (unit not given)
[10] = Table II, enzyme HIV-1, DOSE 10.000 (unit not given)
[11] = Table II, enzyme HIV-1, DOSE 30.000 (unit not given)
[12] = Table II, enzyme HIV-1, read-out: FITC KI

T3 sequence (P04584 514-612 limits assumed): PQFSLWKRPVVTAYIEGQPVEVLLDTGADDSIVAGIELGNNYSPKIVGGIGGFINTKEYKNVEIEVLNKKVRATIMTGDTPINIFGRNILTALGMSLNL

SMILES | Ki ([1]; Table I, read-out: HIV Protease FITC Assay Ki) | inhibition of retroviral replication [2] | PROTEASE % INHIB. [3, 6] | PROTEASE % INHIB. [3, 7] | PROTEASE % INHIB. [3, 8] | PROTEASE % INHIB. [3, 9] | PROTEASE % INHIB. [3, 10] | PROTEASE % INHIB. [3, 11] | Ki [4] | PROTEASE % INHIB. [3] | Ki [1, 12] | Ki [5]
CCCC1(CCc2ccccc2)CC(O)=C(C(c2cccc(NS(=O)(=O)c3cn(C)cn3)c2)C(C)(C)C)C(=O)O1 (stereo not shown) [Example 250, N-[3-(1-[5,6-Dihydro-4-hydroxy-2-oxo-6-(2-phenethyl)-6-propyl-2H-pyran-3-yl]-2,2-dimethylpropyl)phenyl]-1-methyl-1H-imidazole-4-sulfonamide] | 1.2 nM | inhibit retroviral replication | – | – | – | – | – | – | – | – | – | –
CCCC1(CCC)CC(O)=C(C(CC)c2cccc(NS(=O)(=O)c3ccc(C(F)(F)F)cn3)c2)C(=O)O1 (stereo not shown) [Example 280, 5-Trifluoromethyl-N-[3-[1-[4-hydroxy-2-oxo-6,6-di-n-propyl-5,6-dihydro-2H-pyran-3-yl]-propyl]-phenyl]-2-pyridinesulfonamide] | – | – | 95.28% | 94.98% | 93.01% | 86.69% | 78.64% | 76.85% | 0.1 nM | – | – | –
CCCC1(CCc2ccccc2)CC(O)=C(C(c2cccc(NS(=O)(=O)c3ccc(N)cn3)c2)C(C)(C)C)C(=O)O1 (stereo not shown) [Example 299, 5-Amino-N-[3-(1-[5,6-dihydro-4-hydroxy-2-oxo-6-(2-phenylethyl)-6-propyl-2H-pyran-3-yl]-2,2-dimethylpropyl)phenyl]-2-pyridinesulfonamide] | – | – | – | – | – | – | – | – | 0.2 nM | 83.51 and 104.76 and 117.95 and 115.61 and 128.03 and 102.89 | – | –
CCC(C1=C(O)CC(CCc2ccccc2)(CCc2ccccc2)OC1=O)c1cccc(NS(=O)(=O)c2cn(C)cn2)c1 (stereo not shown) [Example 330, N-[3-{1-(4-Hydroxy-5,6-dihydro-2-oxo-6,6-bis(2-phenylethyl)-2H-pyran-3-yl)propyl}phenyl]-1-methyl-1H-imidazole-4-sulfonamide] | – | – | 93.74% | 94.32% | 93.66% | 85.63% | 87.9% | 69.82% | 0.524 nM | – | – | –
CCC(C1=C(O)CC(CCc2ccccc2)(CCc2ccccc2)OC1=O)c1cccc(NS(=O)(=O)c2ccc(C#N)cn2)c1 (stereo not shown) [Example 331, N-[3-{1-(4-Hydroxy-5,6-dihydro-2-oxo-6,6-bis(2-phenylethyl)-2H-pyran-3-yl)propyl}phenyl]-5-cyanopyridine-2-sulfonamide] | – | – | 99.76% | 104.06% | 108.51% | 99.3% | 103.28% | 93.3% | 0.272 nM | – | – | –
CCCC1(CCc2ccc(F)cc2)CC(O)=C(C(CC)c2cccc(NS(=O)(=O)c3ccc(C(N)=O)cn3)c2)C(=O)O1 (stereo not shown) [Example 332, N-[3-{1-(4-Hydroxy-5,6-dihydro-2-oxo-6-(2-(4-fluorophenyl)ethyl)-6-propyl-2H-pyran-3-yl)propyl}phenyl]-5-carbamoylpyridine-2-sulfonamide] | – | – | 81.87% | 85.65% | 86.23% | 93.28% | 91.68% | 95.08% | 0.4 nM | – | 1.6 nM | –
CCCC1(CCC)CC(O)=C(C(CC)c2cccc(NS(=O)(=O)c3ccc(C(N)=O)cn3)c2)C(=O)O1 (stereo not shown) [Example 334, N-[3-{1-(4-Hydroxy-5,6-dihydro-2-oxo-6,6-dipropyl-2H-pyran-3-yl)propyl}phenyl]-5-carbamoylpyridine-2-sulfonamide] | – | – | 93.49% | 90.25% | 94.57% | 102.47% | 97.61% | 96.3% | 0.45 nM | – | – | –
N#Cc1ccc(S(=O)(=O)Nc2cccc(CC3=C(O)CC(CCc4ccccc4)(CCc4ccccc4)OC3=O)c2)nc1 [Example 353, N-[3-{1-(4-Hydroxy-5,6-dihydro-2-oxo-6,6-bis(2-phenylethyl)-2H-pyran-3-yl)methyl}phenyl]-5-cyanopyridine-2-sulfonamide] | – | – | 51.83% | 68.49% | 70.71% | 63.96% | 51.8% | 43.93% | 5.3 nM | – | 10.4 nM | –
CCC(C1=C(O)C2CCCCC2OC1=O)c1cccc(NS(=O)(=O)c2ccc(C#N)cn2)c1 (stereo not shown) [Example 370] | – | – | 92.81% | 87.87% | 102.89% | 109.33% | 113.79% | 98.14% | 0.05 nM | – | 0.59 nM | 0.05 nM
CC(C)(C)C(C1=C(O)C2CCCCCCC2OC1=O)c1cccc(NS(=O)(=O)c2ccc(C#N)cn2)c1 (stereo not shown) [Example 373, 5-Cyano-N-[3-[2,2-dimethyl-1-(4a,5,6,7,8,9,10,10a-octahydro-4-hydroxy-2-oxo-2H-cycloocta[b]pyran-3-yl)propyl]phenyl]-2-pyridinesulfonamide] | – | – | 90.71% | 90.35% | 103.83% | 88.72% | 85.75% | 89.53% | 0.2 nM | – | – | –
